Assays:
LX-2 cells = assay: TGFβ1-induced fibrotic gene expression (RT-qPCR, siRNA) in LX-2 cells; type: cell-based, human
Procedure: FIGS. 4A-4C. VDR Signaling Suppresses TGFβ-induced Pro-Fibrotic Genes. (A) Heat map comparing 519 differentially expressed genes in freshly isolated rat HSCs (quiescent HSCs, Q-HSCs), activated HSCs (A-HSCs, 3 days culture on plastic) and cells cultures in the presence of 10 nM 1,25(OH)2D3 (A-HSCs+1,25(OH)2D3). Euclidean clustering of both rows and columns using log2 transformed microarray expression data, n=2 per treatment group. (B) Heat map of fold expression change of genes involved in fibrosis in primary rat HSCs treated with TGFβ1 (1 ng/ml) and TGFβ1 plus 1,25(OH)2D3 (100 nM) for 24 hours, n=2 per treatment group. […] Data represents the mean±SEM of at least three independent experiments performed in triplicate. Asterisks denote statistically significant differences (Student's unpaired t-test, *p<0.05, **p<0.01).
LX-2 cells, a generous gift from Professor Scott Friedman, Mount Sinai School of Medicine, New York, N.Y., were cultured as described previously (Xu et al., 2005). […] For luciferase assays, DNA transfections were performed using Fugene 6 (Roche) following the manufacturer's instructions. […] Quantitative PCR was performed in technical triplicates using SYBR Green reagent (Biorad). The relative standard curve method was used for quantitation (Biorad). Expression levels were calculated by normalization to either Gapdh (mouse) or U36B4 (human) quantities. […]

[1] = tested on: NCoR, SMRT, HDAC3, CoREST, LSD1, and G9a; assay: ChIP-qPCR of corepressor recruitment at COL1A1 and COL1A2 regulatory regions in LX-2 cells; type: cell-based, human; settings: calcipotriol 100 nM and TGFβ1 1 ng/ml
From the text: FIGS. 12A-12B. Coactivator/Corepressor Recruitment and Histone H3 Acetylation Status at Regulatory Regions of Fibrotic Genes Co-occupied by VDR and SMAD. […] The level of occupancy is expressed relative to input chromatin in LX-2 cells treated with corresponding conditions. Data represents the mean+/−SEM of at least three independent experiments performed in triplicate. Asterisks denote statistically significant differences (Student's t test, *p<0.05). […] The level of occupancy is expressed relative to input chromatin in LX-2 cells treated with corresponding conditions.
Cells were then harvested for ChIP assay. The experimental procedure for ChIP was as previously described (Barish et al., 2010). Briefly, after fixation, nuclei from LX-2 cells were isolated, lysed and sheared with a Diagenode Bioruptor to yield DNA fragment sizes of 200-1000 base pairs followed by immunoprecipitation using antibodies listed below: normal rabbit IgG (Santa Cruz, sc-2027), VDR (Santa Cruz, sc-1008), SMAD3 (Abcam, ab28379) and histone H3 (Abcam, ab1791). For ChIP-Re-ChIP, after first ChIP, the immunoprecipitated DNA-protein complex was eluted from beads using 10 mM DTT, diluted 100-fold then re-immunoprecipitated with a second antibody, re-ChIP.

**Q.** For `C=C1/C(=C\C=C2/CCC[C@]3(C)[C@@H]([C@H](C)/C=C/[C@@H](O)C4CC4)CC[C@@H]23)C[C@@H](O)C[C@@H]1O` [calcipotriol, 1α,24-(OH)2-24-cyclopropyl-D3], which fibrotic gene expression (LX-2 cells) is on record?
**A.** potently repressed

**Q.** What about the “calcipotriol-mediated repression of TGFβ1 induced gene expression after loss of VDR” value (LX-2 cells; siVDR RNAi, Cal 100 nM, TGFβ1 1 ng/ml, 16 hours) of the same compound?
**A.** abolished

**Q.** What about the “altered binding of corepressors to VDR/SMAD3 co-occupied regulatory regions” value [1] of the same compound?
**A.** not detected

From US10238667B2, “Vitamin D receptor/SMAD genomic circuit gates fibrotic response” (Salk Institute for Biological Studies, priority 2013, dated 2019)
